Measured values taken from ChEMBL document CHEMBL1201862, “PubChem BioAssay data set” (2004).
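Growth conditions: 96-well plates. Treatment: test compound, 48 hours, 5 concentrations. Analysis: linear interpolation between bracketing concentrations; unreached endpoints set to highest concentration. GI50: concentration for 50% inhibition of growth.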 Activity calls are given as the source filed them. Cut-off read from the data, not from the text of the source: active = GI50 up to about 1.1 µM and inactive = higher.

Legend:
Assay in all cases: NCI-60 cell line screen, 48 h
ACHN = test system: ACHN
SK-MEL-28 = test system: SK-MEL-28
OVCAR-8 = test system: OVCAR-8
A549 = test system: A549
K562 = test system: K562
SF-268 = test system: SF-268
U-251 = test system: U-251
M14 = test system: M14
SK-OV-3 = test system: SK-OV-3
UACC-257 = test system: UACC-257
MOLT-4 = test system: MOLT-4
Malme-3M = test system: Malme-3M
UACC-62 = test system: UACC-62
NCI-H23 = test system: NCI-H23
LOX IMVI = test system: LOX IMVI
RXF 393 = test system: RXF 393
SNB-19 = test system: SNB-19
SW-620 = test system: SW-620

Measured: GI50

C=C=C[P+](c1ccccc1)(c1ccccc1)c1ccccc1
inactive: ACHN 14.5 µM | SK-MEL-28 21.4 µM | OVCAR-8 3.13 µM | A549 26.8 µM | K562 3.4 µM | SF-268 15.3 µM | U-251 3.56 µM | M14 6.05 µM | SK-OV-3 45.6 µM | UACC-257 7.06 µM | MOLT-4 2.6 µM | Malme-3M 13.2 µM

CCOC(=O)[C@H]1Nc2ccccc2C2c3ccccc3CC21 (stereo partly specified)
inactive: UACC-62 53.3 µM | ACHN > 100 µM | NCI-H23 79.6 µM | SK-MEL-28 34.2 µM | OVCAR-8 48.5 µM | A549 78.3 µM | K562 38.9 µM | LOX IMVI > 100 µM | SF-268 > 100 µM | U-251 > 100 µM | RXF 393 3.3 µM | SNB-19 > 100 µM | M14 > 100 µM | SW-620 36.8 µM | UACC-257 22 µM | MOLT-4 24.4 µM | Malme-3M > 100 µM

Cc1nc2ccncc2[nH]1
inactive: UACC-62 > 100 µM | ACHN > 100 µM | NCI-H23 > 100 µM | SK-MEL-28 > 100 µM | OVCAR-8 > 100 µM | A549 > 100 µM | K562 > 100 µM | LOX IMVI > 100 µM | SF-268 > 100 µM | U-251 > 100 µM | RXF 393 > 100 µM | SNB-19 > 100 µM | M14 > 100 µM | SW-620 > 100 µM | UACC-257 > 100 µM | MOLT-4 > 100 µM | Malme-3M > 100 µM

O=C1OC(CC(=O)c2ccc(Cl)cc2)C(Cl)=C1Cl (stereo unspecified)
inactive: UACC-62 > 100 µM | ACHN > 100 µM | NCI-H23 > 100 µM | SK-MEL-28 > 100 µM | OVCAR-8 > 100 µM | A549 > 100 µM | K562 54.6 µM | SF-268 > 100 µM | U-251 > 100 µM | SNB-19 > 100 µM | M14 > 100 µM | SK-OV-3 > 100 µM | SW-620 > 100 µM | UACC-257 > 100 µM | MOLT-4 39.2 µM | Malme-3M > 100 µM

O=C(c1ccc(NCN2C(=O)CCC2=O)cc1)c1ccc(NCN2C(=O)CCC2=O)cc1
inactive: UACC-62 > 100 µM | ACHN > 100 µM | NCI-H23 > 100 µM | SK-MEL-28 > 100 µM | OVCAR-8 > 100 µM | A549 > 100 µM | K562 67.3 µM | LOX IMVI > 100 µM | SF-268 > 100 µM | U-251 > 100 µM | RXF 393 > 100 µM | SNB-19 > 100 µM | M14 > 100 µM | SW-620 58.5 µM | UACC-257 27.7 µM | MOLT-4 > 100 µM | Malme-3M > 100 µM

NC(CCCC(N)P(=O)(O)O)P(=O)(O)O (stereo unspecified)
inactive: UACC-62 > 100 µM | ACHN > 100 µM | NCI-H23 > 100 µM | SK-MEL-28 > 100 µM | OVCAR-8 > 100 µM | A549 > 100 µM | K562 > 100 µM | LOX IMVI > 100 µM | U-251 > 100 µM | RXF 393 > 100 µM | M14 > 100 µM | SK-OV-3 > 100 µM | SW-620 > 100 µM | UACC-257 > 100 µM | MOLT-4 > 100 µM | Malme-3M > 100 µM

COc1ccccc1/C=C1\C(=O)N(C(=O)Cc2ccccc2)N=C1C
inactive: ACHN > 100 µM | NCI-H23 > 100 µM | SK-MEL-28 > 100 µM | OVCAR-8 > 100 µM | A549 > 100 µM | K562 > 100 µM | LOX IMVI > 100 µM | SF-268 > 100 µM | U-251 > 100 µM | SNB-19 > 100 µM | M14 > 100 µM | SW-620 > 100 µM | UACC-257 > 100 µM | MOLT-4 > 100 µM | Malme-3M > 100 µM

CC1C[C@@H]2C(=O)NC(=O)[C@@H]2c2c1c1ccccc1n2C (stereo partly specified)
inactive: UACC-62 > 100 µM | NCI-H23 > 100 µM | SK-MEL-28 > 100 µM | OVCAR-8 > 100 µM | A549 > 100 µM | K562 > 100 µM | LOX IMVI > 100 µM | SF-268 > 100 µM | U-251 > 100 µM | RXF 393 > 100 µM | SNB-19 > 100 µM | M14 > 100 µM | SK-OV-3 > 100 µM | SW-620 > 100 µM | UACC-257 > 100 µM | MOLT-4 > 100 µM | Malme-3M > 100 µM

COc1nc(=O)n(COC(CO)CN2C(=O)c3ccccc3C2=O)cc1Cc1cccc(OCc2ccccc2)c1 (stereo unspecified)
inactive: UACC-62 14.6 µM | ACHN 23.7 µM | NCI-H23 27.2 µM | SK-MEL-28 17.2 µM | OVCAR-8 34.5 µM | A549 23.5 µM | K562 24.9 µM | LOX IMVI 20.1 µM | U-251 21.9 µM | SNB-19 29.6 µM | M14 20.4 µM | SK-OV-3 26.5 µM | SW-620 42.7 µM | MOLT-4 21.2 µM

COc1ccc(C2=NN(c3ccccc3)C[N+](c3ccc(OC)cc3)=N2)cc1
inactive: ACHN 30.3 µM | NCI-H23 29.9 µM | SK-MEL-28 26.9 µM | OVCAR-8 85.7 µM | A549 48 µM | K562 19.2 µM | LOX IMVI 17.6 µM | SF-268 35.9 µM | U-251 20.4 µM | RXF 393 26 µM | SNB-19 28.4 µM | SW-620 24.5 µM | UACC-257 76.2 µM | MOLT-4 20.3 µM | Malme-3M 21.2 µM

COc1cccc(Cc2c3cc(OC)ccc3cc[n+]2C)c1
inactive: ACHN > 100 µM | NCI-H23 26.6 µM | SK-MEL-28 33.9 µM | OVCAR-8 73.6 µM | A549 > 100 µM | K562 36 µM | SF-268 36.2 µM | U-251 53.2 µM | SNB-19 43.1 µM | M14 67.5 µM | SW-620 > 100 µM | UACC-257 21.4 µM | MOLT-4 > 100 µM | Malme-3M > 100 µM

COc1ccc(/C(=N/NC(N)=O)C2(O)C(=O)Nc3ccc([N+](=O)[O-])cc32)cc1 (stereo unspecified)
inactive: UACC-62 20 µM | ACHN 16.6 µM | NCI-H23 17 µM | SK-MEL-28 20 µM | OVCAR-8 22.3 µM | A549 55.6 µM | K562 22 µM | SF-268 18.5 µM | U-251 > 10 µM | SNB-19 > 10 µM | M14 15.3 µM | SK-OV-3 > 100 µM | SW-620 22.8 µM | UACC-257 21.1 µM | MOLT-4 19.6 µM | Malme-3M > 10 µM

CN1c2ccccc2N(C)C2C1N(C)c1ccccc1N2C (stereo unspecified)
inactive: UACC-62 5.15 µM | ACHN 40.1 µM | NCI-H23 16.8 µM | SK-MEL-28 4.69 µM | OVCAR-8 18.6 µM | A549 26.8 µM | K562 3.42 µM | LOX IMVI 5.25 µM | SF-268 12.3 µM | U-251 26.1 µM | RXF 393 11.1 µM | SNB-19 18.8 µM | M14 18.2 µM | SW-620 7.85 µM | UACC-257 6.67 µM | MOLT-4 2.86 µM | Malme-3M 16.6 µM

Cc1c(C(=O)CC(=O)C(=O)Nc2ccccc2C(F)(F)F)[n+]([O-])c2ccccc2[n+]1[O-]
inactive: UACC-62 18 µM | ACHN 62.2 µM | NCI-H23 17.4 µM | SK-MEL-28 27.4 µM | OVCAR-8 18.2 µM | A549 24.2 µM | K562 22 µM | LOX IMVI 18.7 µM | SF-268 21.2 µM | U-251 19.6 µM | RXF 393 19.2 µM | SNB-19 32.1 µM | M14 15.2 µM | SK-OV-3 25.5 µM | SW-620 16.2 µM | UACC-257 18.4 µM | Malme-3M 20.6 µM

O=c1nc(NC(c2ccccc2)(c2ccccc2)c2ccccc2)ccn1CCO
inactive: ACHN 48.5 µM | NCI-H23 > 100 µM | SK-MEL-28 > 100 µM | OVCAR-8 > 100 µM | A549 41.1 µM | K562 58.7 µM | LOX IMVI 75.9 µM | SF-268 66.4 µM | U-251 > 100 µM | RXF 393 6.52 µM | SNB-19 > 100 µM | SW-620 > 100 µM | UACC-257 > 100 µM | MOLT-4 29.9 µM | Malme-3M > 100 µM

CCOC(=O)Cn1c(=O)n(C)c(=O)c2[nH]cnc21
inactive: UACC-62 > 100 µM | ACHN > 100 µM | NCI-H23 > 100 µM | SK-MEL-28 > 100 µM | OVCAR-8 > 100 µM | A549 > 100 µM | K562 > 100 µM | SF-268 > 100 µM | U-251 > 100 µM | SNB-19 > 100 µM | M14 > 100 µM | SK-OV-3 > 100 µM | SW-620 > 100 µM | MOLT-4 > 100 µM | Malme-3M > 100 µM

N#Cc1cccc(N2C(=O)c3ccc(C(=O)c4ccc5c(c4)C(=O)N(c4cccc(C#N)c4)C5=O)cc3C2=O)c1
inactive: UACC-62 > 100 µM | NCI-H23 > 100 µM | OVCAR-8 > 100 µM | A549 > 100 µM | K562 > 100 µM | LOX IMVI > 100 µM | SF-268 > 100 µM | U-251 35.8 µM | RXF 393 > 100 µM | SNB-19 > 100 µM | M14 > 100 µM | SK-OV-3 > 100 µM | SW-620 > 100 µM | UACC-257 > 100 µM | MOLT-4 > 100 µM | Malme-3M > 100 µM
